Reference: the supplement of paper PMC10627819

Tests used:
S. pneumoniae D39V [1] = assay: fitness (endpoint OD595 vs no drug) (fraction); higher = more growth
Procedure, shortened: (§1)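 Bacterial fitness was scored as optical density at the stationary-phase transition relative to the robust mean of no-drug control wells. Scores are capped at 1. The growth data were OD595 readings every 30 min for 14 h at 37 °C, background-subtracted against the first reading, from 384-well plates inoculated at OD595 0.01 in TSB, LB Lennox or CY.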

B. subtilis 168 [2] = assay: as above
Procedure, shortened: as §1

S. aureus DSM 20231 = assay: Bliss interaction score (quartile over a dose matrix) (fitness difference); higher = more antagonism (negative = synergy)
Procedure, shortened: (§2)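 Fitness was OD595 at entry into stationary phase divided by the plate's robust no-drug mean and capped at 1; single-drug fitness was inferred from combination data. The Bliss score is observed minus expected (product) fitness, summarised by quartiles over technical, biological and donor/recipient replicates.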

S. aureus Newman = assay: as above
Procedure, shortened: as §2

S. pneumoniae D39V [3] = assay: as above
Procedure, shortened: as §2

B. subtilis 168 [4] = assay: as above
Procedure, shortened: as §2
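For Bliss interaction score (quartile over a dose matrix) in this document: first quartile when negative (synergy) and third quartile when positive (antagonism).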

O=C(O)c1cn(C2CC2)c2cc(N3CCNCC3)c(F)cc2c1=O [Ciprofloxacin] + CN(C)C(=O)C(CCN1CCC(O)(c2ccc(Cl)cc2)CC1)(c1ccccc1)c1ccccc1 [Loperamide]
Conditions | fitness
B. subtilis 168 [2], first compound 0.0098 µg/mL, partner 25 µg/mL | 0.855
B. subtilis 168 [2], first compound 0.0195 µg/mL, partner 25 µg/mL | 0.643
B. subtilis 168 [2], first compound 0.039 µg/mL, partner 25 µg/mL | 0.038
B. subtilis 168 [2], first compound 0.039 µg/mL, partner 50 µg/mL | 0.0608
B. subtilis 168 [2], first compound 0.039 µg/mL, partner 100 µg/mL | 0.0402
S. pneumoniae D39V [1], first compound 0.125 µg/mL, partner 17.14 µg/mL | 0.944
S. pneumoniae D39V [1], first compound 0.125 µg/mL, partner 20 µg/mL | ≥ 1
S. pneumoniae D39V [1], first compound 0.125 µg/mL, partner 34.28 µg/mL | 0.923
S. pneumoniae D39V [1], first compound 0.125 µg/mL, partner 40 µg/mL | ≥ 1
S. pneumoniae D39V [1], first compound 0.25 µg/mL, partner 17.14 µg/mL | 0.887
S. pneumoniae D39V [1], first compound 0.25 µg/mL, partner 34.28 µg/mL | 0.886
S. pneumoniae D39V [1], first compound 0.5 µg/mL, partner 17.14 µg/mL | 0.763
S. pneumoniae D39V [1], first compound 0.5 µg/mL, partner 20 µg/mL | 0.883
S. pneumoniae D39V [1], first compound 0.5 µg/mL, partner 34.28 µg/mL | 0.731
S. pneumoniae D39V [1], first compound 0.5 µg/mL, partner 40 µg/mL | 0.865

fitness, S. pneumoniae D39V [1], one replicate
Conditions | partner 20 µg/mL | partner 40 µg/mL | partner 68.57 µg/mL | partner 80 µg/mL
first compound 0.125 µg/mL | – | – | 0.952 | –
first compound 0.25 µg/mL | 0.994 | ≥ 1 | 0.964 | 0.531
first compound 0.5 µg/mL | – | – | 0.886 | –

Conditions | Bliss interaction score
B. subtilis 168 [4] | 0.199
S. aureus DSM 20231 | -0.258
S. aureus Newman | -0.0992
S. pneumoniae D39V [3] | 0.109

O=C(O)c1cn(C2CC2)c2cc(N3CCNCC3)c(F)cc2c1=O [Ciprofloxacin] + C[C@H]1COc2c(N3CCN(C)CC3)c(F)cc3c(=O)c(C(=O)O)cn1c23 [Levofloxacin]
Conditions | fitness
B. subtilis 168 [2], first compound 0.0098 µg/mL, partner 0.002 µg/mL | 0.855
B. subtilis 168 [2], first compound 0.0098 µg/mL, partner 0.0039 µg/mL | 0.873
B. subtilis 168 [2], first compound 0.0098 µg/mL, partner 0.0312 µg/mL | 0.0377
B. subtilis 168 [2], first compound 0.0098 µg/mL, partner 0.0625 µg/mL | 0.0424
B. subtilis 168 [2], first compound 0.0098 µg/mL, partner 0.125 µg/mL | 0.0385
B. subtilis 168 [2], first compound 0.0195 µg/mL, partner 0.002 µg/mL | 0.727
B. subtilis 168 [2], first compound 0.0195 µg/mL, partner 0.0039 µg/mL | 0.722
B. subtilis 168 [2], first compound 0.0195 µg/mL, partner 0.0312 µg/mL | 0.0376
B. subtilis 168 [2], first compound 0.0195 µg/mL, partner 0.0625 µg/mL | 0.0489
B. subtilis 168 [2], first compound 0.0195 µg/mL, partner 0.125 µg/mL | 0.0429
B. subtilis 168 [2], first compound 0.039 µg/mL, partner 0.002 µg/mL | 0.123
B. subtilis 168 [2], first compound 0.039 µg/mL, partner 0.0039 µg/mL | 0.145
B. subtilis 168 [2], first compound 0.039 µg/mL, partner 0.0312 µg/mL | 0.0451
B. subtilis 168 [2], first compound 0.039 µg/mL, partner 0.0625 µg/mL | 0.0495
B. subtilis 168 [2], first compound 0.039 µg/mL, partner 0.125 µg/mL | 0.0401
S. pneumoniae D39V [1], first compound 0.125 µg/mL, partner 0.1725 µg/mL | 0.884
S. pneumoniae D39V [1], first compound 0.125 µg/mL, partner 0.2 µg/mL | 0.883
S. pneumoniae D39V [1], first compound 0.125 µg/mL, partner 0.345 µg/mL | 0.794
S. pneumoniae D39V [1], first compound 0.125 µg/mL, partner 0.4 µg/mL | 0.735
S. pneumoniae D39V [1], first compound 0.125 µg/mL, partner 0.69 µg/mL | 0.498
S. pneumoniae D39V [1], first compound 0.125 µg/mL, partner 0.8 µg/mL | 0.201
S. pneumoniae D39V [1], first compound 0.25 µg/mL, partner 0.1725 µg/mL | 0.83
S. pneumoniae D39V [1], first compound 0.25 µg/mL, partner 0.345 µg/mL | 0.723
S. pneumoniae D39V [1], first compound 0.25 µg/mL, partner 0.69 µg/mL | 0.445
S. pneumoniae D39V [1], first compound 0.5 µg/mL, partner 0.1725 µg/mL | 0.592
S. pneumoniae D39V [1], first compound 0.5 µg/mL, partner 0.345 µg/mL | 0.462
S. pneumoniae D39V [1], first compound 0.5 µg/mL, partner 0.69 µg/mL | 0.282
S. pneumoniae D39V [1], first compound 0.5 µg/mL, partner 0.8 µg/mL | 0.145

one replicate
Conditions | fitness
B. subtilis 168 [2], first compound 0.0098 µg/mL, partner 0.001 µg/mL | 0.863
B. subtilis 168 [2], first compound 0.0098 µg/mL, partner 0.0078 µg/mL | 0.934
B. subtilis 168 [2], first compound 0.0195 µg/mL, partner 0.001 µg/mL | 0.829
B. subtilis 168 [2], first compound 0.0195 µg/mL, partner 0.0078 µg/mL | 0.683
B. subtilis 168 [2], first compound 0.039 µg/mL, partner 0.001 µg/mL | 0.291
B. subtilis 168 [2], first compound 0.039 µg/mL, partner 0.0078 µg/mL | 0.0887
S. pneumoniae D39V [1], first compound 0.25 µg/mL, partner 0.2 µg/mL | 0.752
S. pneumoniae D39V [1], first compound 0.25 µg/mL, partner 0.4 µg/mL | 0.559
S. pneumoniae D39V [1], first compound 0.25 µg/mL, partner 0.8 µg/mL | 0.124

Conditions | Bliss interaction score
B. subtilis 168 [4] | -0.0411
S. aureus DSM 20231 | -0.147
S. aureus Newman | -0.194
S. pneumoniae D39V [3] | -0.166

O=C(O)c1cn(C2CC2)c2cc(N3CCNCC3)c(F)cc2c1=O [Ciprofloxacin] + C[C@H]1c2cccc(O)c2C(=O)C2=C(O)[C@]3(O)C(=O)C(C(N)=O)=C(O)[C@@H](N(C)C)[C@@H]3[C@@H](O)[C@@H]21 [Doxycycline]
fitness, S. pneumoniae D39V [1], one replicate
Conditions | first compound 0.125 µg/mL | first compound 0.25 µg/mL | first compound 0.5 µg/mL
partner 0.003875 µg/mL | ≥ 1 | 0.931 | 0.804
partner 0.00775 µg/mL | 0.967 | 0.913 | 0.825

fitness
Conditions | partner 0.0155 µg/mL | partner 0.02 µg/mL | partner 0.031 µg/mL | partner 0.04 µg/mL | partner 0.08 µg/mL
B. subtilis 168 [2], first compound 0.0098 µg/mL | – | 0.879 | – | 0.813 | 0.677
B. subtilis 168 [2], first compound 0.0195 µg/mL | – | 0.726 | – | 0.688 | 0.58
S. pneumoniae D39V [1], first compound 0.125 µg/mL | 0.891 | – | 0.742 | – | –
S. pneumoniae D39V [1], first compound 0.25 µg/mL | 0.892 | – | 0.703 | – | –

Conditions | Bliss interaction score
B. subtilis 168 [4] | 0.183
S. aureus DSM 20231 | 0.0661
S. aureus Newman | 0.0631
S. pneumoniae D39V [3] | 0.0673

COc1cccc2c1C(=O)c1c(O)c3c(c(O)c1C2=O)C[C@@](O)(C(=O)CO)C[C@@H]3O[C@H]1C[C@H](N)[C@H](O)[C@H](C)O1 [Doxorubicin] + CCC(C)C1C(=O)NC(=C)C(=O)NC(C(=O)NC(CSCC(C(=O)N1)NC(=O)/C(=C/C)/NC(=O)C(C(C)CC)N)C(=O)NC2C(SCC(NC(=O)CNC(=O)C3CCCN3C2=O)C(=O)NC(CCCCN)C(=O)NC4C(SCC(NC(=O)CNC(=O)C(NC(=O)C(NC(=O)C(NC(=O)CNC4=O)C)CC(C)C)CCSC)C(=O)NC(CC(=O)N)C(=O)NC(CCSC)C(=O)NC(CCCCN)C(=O)NC5C(SCC6C(=O)NC(C(=O)NC(CSC(C(C(=O)N6)NC(=O)C(NC5=O)C)C)C(=O)NC(CO)C(=O)NC(C(C)CC)C(=O)NC(CC7=CN=CN7)C(=O)NC(C(C)C)C(=O)NC(=C)C(=O)NC(CCCCN)C(=O)O)CC8=CN=CN8)C)C)C)CC(C)C [Nisin]
main component drawn
Conditions | fitness
B. subtilis 168 [2], first compound 0.625 µg/mL, partner 0.5 µg/mL | 0.882
B. subtilis 168 [2], first compound 0.625 µg/mL, partner 1 µg/mL | 0.852
B. subtilis 168 [2], first compound 0.625 µg/mL, partner 2 µg/mL | 0.459
B. subtilis 168 [2], first compound 1.25 µg/mL, partner 0.5 µg/mL | 0.821
B. subtilis 168 [2], first compound 1.25 µg/mL, partner 1 µg/mL | 0.83
B. subtilis 168 [2], first compound 1.25 µg/mL, partner 2 µg/mL | 0.567
B. subtilis 168 [2], first compound 2.5 µg/mL, partner 0.5 µg/mL | 0.688
B. subtilis 168 [2], first compound 2.5 µg/mL, partner 1 µg/mL | 0.603
B. subtilis 168 [2], first compound 2.5 µg/mL, partner 2 µg/mL | 0.19
S. pneumoniae D39V [1], first compound 0.25 µg/mL, partner 0.4275 µg/mL | 0.998
S. pneumoniae D39V [1], first compound 0.25 µg/mL, partner 0.855 µg/mL | 0.991
S. pneumoniae D39V [1], first compound 0.25 µg/mL, partner 1.6 µg/mL | 0.0164
S. pneumoniae D39V [1], first compound 0.25 µg/mL, partner 1.71 µg/mL | 0.0746
S. pneumoniae D39V [1], first compound 0.25 µg/mL, partner 3.2 µg/mL | 0.0268
S. pneumoniae D39V [1], first compound 0.25 µg/mL, partner 6.4 µg/mL | 0.0249
S. pneumoniae D39V [1], first compound 0.5 µg/mL, partner 0.4275 µg/mL | 0.977
S. pneumoniae D39V [1], first compound 0.5 µg/mL, partner 0.855 µg/mL | 0.91
S. pneumoniae D39V [1], first compound 0.5 µg/mL, partner 1.6 µg/mL | 0.0215
S. pneumoniae D39V [1], first compound 0.5 µg/mL, partner 1.71 µg/mL | 0.0797
S. pneumoniae D39V [1], first compound 0.5 µg/mL, partner 3.2 µg/mL | 0.0424
S. pneumoniae D39V [1], first compound 0.5 µg/mL, partner 6.4 µg/mL | 0.039
S. pneumoniae D39V [1], first compound 1 µg/mL, partner 0.4275 µg/mL | 0.844
S. pneumoniae D39V [1], first compound 1 µg/mL, partner 1.6 µg/mL | 0.0081
S. pneumoniae D39V [1], first compound 1 µg/mL, partner 1.71 µg/mL | 0.065
S. pneumoniae D39V [1], first compound 1 µg/mL, partner 3.2 µg/mL | 0.0126
S. pneumoniae D39V [1], first compound 1 µg/mL, partner 6.4 µg/mL | 0.0281

fitness, B. subtilis 168 [2], one replicate, main component drawn
Conditions | partner 1.25 µg/mL | partner 1.6 µg/mL | partner 2.5 µg/mL | partner 3.2 µg/mL | partner 4 µg/mL | partner 5 µg/mL | partner 6.4 µg/mL | partner 8 µg/mL | partner 16 µg/mL
first compound 0.625 µg/mL | ≥ 1 | 0.646 | 0.612 | 0.0265 | 0.0271 | 0.0205 | 0.0251 | 0.0074 | 0.0185
first compound 1.25 µg/mL | 0.996 | 0.742 | 0.659 | 0.0085 | 0.0489 | 0.0315 | 0.0249 | 0.0463 | 0.0265
first compound 2.5 µg/mL | 0.888 | 0.178 | 0.451 | 0.0274 | 0.0327 | 0.0219 | 0.0137 | 0.0311 | 0.0578

main component drawn
Conditions | Bliss interaction score
B. subtilis 168 [4] | 0.0614
S. aureus DSM 20231 | 0.0625
S. aureus Newman | -0.0646
S. pneumoniae D39V [3] | -0.0536
